According to publication PMC8658889, “Seriniquinones as Therapeutic Leads for Treatment of BRAF and NRAS Mutant Melanomas” (Molecules, 2021):

Columns and labels:
Type in all cases: cell-based, Human
DCD gene = DCD gene expression by qPCR in SK-MEL-28; conditions: SK-MEL-28, 24 h
Protocol: […] (2.5 × 10^5) cells in 1 mL of media were seeded in cell culture dishes and, 24 h later, treated with SQ1 (0.3 µM and 0.6 µM for SK-MEL-28 and 0.9 µM and 1.8 µM for SK-MEL-147) or SQ2 (0.05 µM and 0.1 µM for SK-MEL-28 and 0.6 µM and 1.2 µM for SK-MEL-147) for 24 h. Doxorubicin (DOX; 1.4 µM for SK-MEL-28 and 0.8 µM for SK-MEL-147) was used as positive control and 0.5% DMSO as negative control.
Treated cells (Section 4.6) had their total RNA extracted and purified using TRIzol reagent (Thermo Fisher Scientific, San Jose, CA, USA), in accordance with the manufacturer’s recommendations. For analysis of DCD expression, purified total RNA was quantified using an Eon Microplate Spectrophotometer (BioTek Instruments, Winooski, VT, USA). Quantitative PCR (qPCR) was conducted on a Rotor Gene 6000 real-time cycler (Corbett Life Science, Sydney, NSW, Australia) using GoTaq 1-Step RT-qPCR System (Promega, Madison, WI, EUA). The cycle conditions were as follows: 45 °C for 10 min, 95 °C for 15 min and 40 cycles of 95 °C for 15 s; 60 °C for 60 s, followed by the melt. Relative expression was calculated using the comparative CT method Delta-Delta-Ct (DDCt). The primer sequences and concentrations utilized (DCD and RPLPO) can be consulted in Table S3.

FDH = test: MTT cytotoxicity assay; conditions: FDH primary fibroblasts, 72 h treatment
MM200 = test: MTT cytotoxicity assay; conditions: for IC50: MM200, 72 h treatment, MTT
SK-MEL-147 = test: MTT cytotoxicity assay; conditions: for IC50: Homo sapiens
SK-MEL-28 = test: MTT cytotoxicity assay; conditions: for IC50: Homo sapiens
WM293A = test: MTT cytotoxicity assay; conditions: for IC50: Homo sapiens, WM293A, 72 h treatment, MTT
MCF7 = test: MTT cytotoxicity assay; conditions: for IC50: Homo sapiens, MCF7, 72 h treatment, MTT
[1] = MM200 versus FDH, 72-h IC50 ratio
[2] = MM200 versus MRC-5, 72-h IC50 ratio
[3] = SK-MEL-147, 24 h, SK-MEL-147, 24h treatment, MTT
[4] = SK-MEL-147, 48 h, SK-MEL-147, 48h treatment, MTT
[5] = SK-MEL-147, 72 h, SK-MEL-147, 72 h treatment, MTT
[6] = SK-MEL-147, SK-MEL-147, 24h treatment, 1h pre-treated with 30 nM bafilomycin A1
[7] = SK-MEL-147, SK-MEL-147, 24h treatment, 1h pre-treated with 20 µM Z-VAD-FMK
[8] = SK-MEL-147, SK-MEL-147, 24h treatment, no pre-treatment (Table S4)
[9] = SK-MEL-147 versus FDH, 72-h IC50 ratio
[10] = SK-MEL-147 versus MRC-5, 72-h IC50 ratio
[11] = SK-MEL-28, 24 h, SK-MEL-28, 24h treatment, MTT
[12] = SK-MEL-28, 48 h, SK-MEL-28, 48h treatment, MTT
[13] = SK-MEL-28, 72 h, SK-MEL-28, 72 h treatment, MTT
[14] = SK-MEL-28, SK-MEL-28, 24h treatment, 1h pre-treated with 30 nM bafilomycin A1
[15] = SK-MEL-28, SK-MEL-28, 24h treatment, 1h pre-treated with 20 µM Z-VAD-FMK
[16] = SK-MEL-28, SK-MEL-28, 24h treatment, no pre-treatment (Table S4)
[17] = SK-MEL-28 versus FDH, 72-h IC50 ratio
[18] = SK-MEL-28 versus MRC-5, 72-h IC50 ratio
[19] = WM293A versus FDH, 72-h IC50 ratio
[20] = WM293A versus MRC-5, 72-h IC50 ratio
[21] = MCF7 versus FDH, 72-h IC50 ratio
[22] = MCF7 versus MRC-5, 72-h IC50 ratio

| Compound | IC50 (FDH; Homo sapiens, Fibroblast, 72 h) | IC50 (MM200; Homo sapiens, 72 h) | Selectivity Index (SI) (MM200; [1]) | Selectivity Index (SI) (MM200; [2]) | IC50 (SK-MEL-147; [3]) | IC50 (SK-MEL-147; [4]) | IC50 (SK-MEL-147; [5]) | IC50 (SK-MEL-147; [6]) | IC50 (SK-MEL-147; [7]) | IC50 (SK-MEL-147; [8]) | Selectivity Index (SI) (SK-MEL-147; [9]) | Selectivity Index (SI) (SK-MEL-147; [10]) | IC50 (SK-MEL-28; [11]) | IC50 (SK-MEL-28; [12]) | IC50 (SK-MEL-28; [13]) | IC50 (SK-MEL-28; [14]) | IC50 (SK-MEL-28; [15]) | IC50 (SK-MEL-28; [16]) | Selectivity Index (SI) (SK-MEL-28; [17]) | Selectivity Index (SI) (SK-MEL-28; [18]) | further results |
| --- | --- | --- | --- | --- | --- | --- | --- | --- | --- | --- | --- | --- | --- | --- | --- | --- | --- | --- | --- | --- | --- |
| O=c1c2ccccc2c(=O)c2c1sc1c(=O)c3ccccc3c(=O)c12 [SQ1, seriniquinone] | 1150 nM | 1360 nM | 0.8 | 0.5 | 1790 nM | 1610 nM | 130 nM | 2260 nM | 1890 nM | 1640 nM | 8.8 | 4.9 | 560 nM | 690 nM | 150 nM | 140 nM | 700 nM | 350 nM | 7.7 | 4.3 | DCD expression increase relative to control (DCD gene; 0.3 µM): twofold; DCD expression increase relative to control (DCD gene; 0.6 µM): 20 times; IC50 (FDH): 1200 nM; IC50 (MM200): 1400 nM; IC50 (WM293A): 1050 nM; Selectivity Index (SI) (WM293A; [19]): 1.1; Selectivity Index (SI) (WM293A; [20]): 0.6; IC50 (MCF7): 3300 nM; Selectivity Index (SI) (MCF7; [21]): 0.3; Selectivity Index (SI) (MCF7; [22]): 0.2 |
| CC(C)(O)C(O)CCc1ccc2c(=O)c3sc4c(=O)c5ccccc5c(=O)c4c3c(=O)c2c1 (stereo not drawn) [SQ2] | 1170 nM | 750 nM | 1.6 | 2.1 | 1260 nM | 890 nM | 100 nM | 1180 nM | 1280 nM | 910 nM | 11.7 | 15.7 | 140 nM | 260 nM | 40 nM | 60 nM | 370 nM | 240 nM | 29.3 | 39.3 | DCD expression up-regulation relative to control (DCD gene; 0.1 µM): three; IC50 (WM293A): 740 nM; Selectivity Index (SI) (WM293A; [19]): 1.6; Selectivity Index (SI) (WM293A; [20]): 2.1; IC50 (MCF7): 730 nM; Selectivity Index (SI) (MCF7; [21]): 1.6; Selectivity Index (SI) (MCF7; [22]): 2.2 |
